# Test results from PubChem BioAssay AID206 (DTP/NCI, 2004).
# Where “and” joins values, the source holds several entries; their conditions need not be identical. Identical values can stand only once. Results filed as inconclusive are left out. Positions of bridges follow the written chain, without caps; N, C: chain ends. Non-standard residues stand in square brackets, D forms with d. Residues, ends and D or L forms follow the SMILES beside them. Chains are numbered I, II in the order given. *: point of attachment. Quinoxaline2carbonyl = O=C(c1cnc2ccccc2n1)*; NMeV = CN[CH](C(=O)O)C(C)C; NMeC = CN[CH](CS)C(=O)O
# System: nude mice, HT29 intrarenal xenograft, tumor weight T/C
# Experiment: NCI In Vivo Anticancer Drug Screen. Data for tumor model HT29;CX-1 Human Adenocarcinoma (MER+) (intrarenal inoculation) in NU/NU Swiss (nude) mice
# Conditions: endpoint: mean tumor weight change, higher = larger tumour
# Description: The antitumor activity of compounds was measured in mice bearing transplantable tumors. Survival or tumor size were measured and the results are expressed as the measurement made in the treated group (T) divided by the measurement made in the vehicle treated control group (C). The tumor model used in this assay is HT29;CX-1 Human Adenocarcinoma (MER+) (intrarenal inoculation) in NU/NU Swiss (nude) mice
# [1] = dose: 150.0 mg/kg/injection, schedule: Q04DX004 (sc), vehicle: saline with Tween-80
# [2] = dose: 300.0 mg/kg/injection, schedule: Q04DX004 (sc), vehicle: saline with Tween-80
# [3] = dose: 75.0 mg/kg/injection, schedule: Q04DX004 (sc), vehicle: Klucel (hydroxypropylcellulose) (HPC)
# [4] = dose: 100.0 mg/kg/injection, schedule: Q04DX004 (sc), vehicle: Klucel (hydroxypropylcellulose) (HPC)
# [5] = dose: 200.0 mg/kg/injection, schedule: Q04DX004 (sc), vehicle: Klucel (hydroxypropylcellulose) (HPC)
# [6] = dose: 400.0 mg/kg/injection, schedule: Q04DX004 (sc), vehicle: Klucel (hydroxypropylcellulose) (HPC)
# [7] = dose: 50.0 mg/kg/injection, schedule: Q04DX004 (sc), vehicle: Klucel (hydroxypropylcellulose) (HPC)
smiles,measurement,setting,value
CCCCCCCCCCCCCCCCCC(=O)Nc1ccn(C2OC(CO)C(O)C2O)c(=O)n1 (stereo unspecified),T/C,[1],49 % of control and 61 % of control
same,T/C,[2],67 % of control and 89 % of control
same,T/C,"dose: 1200.0 mg/kg/injection, schedule: Q04DX004 (sc), vehicle: saline with Tween-80",14 % of control and 32 % of control
C1CCC2OCCOCCOC3CCCCC3OCCOCCOC2C1 (stereo unspecified),T/C,"dose: 37.5 mg/kg/injection, schedule: Q04DX004 (sc), vehicle: Klucel (hydroxypropylcellulose) (HPC)",89 % of control
same,T/C,[3],89 % of control
CCCCCCCC(=O)OCC(=O)[C@]1(O)Cc2c(O)c3c(c(O)c2[C@@H](OC2CC(N)C(O)C(C)O2)C1)C(=O)c1c(OC)cccc1C3=O (stereo partly specified),T/C,"dose: 2.0 mg/kg/injection, schedule: Q04DX004 (sc), vehicle: suspension in saline",90 % of control
same,T/C,"dose: 4.0 mg/kg/injection, schedule: Q01DX010 (sc), vehicle: suspension in saline",222 % of control
same,T/C,"dose: 4.0 mg/kg/injection, schedule: Q04DX004 (sc), vehicle: suspension in saline",50 % of control
same,T/C,"dose: 5.0 mg/kg/injection, schedule: Q04DX004 (sc), vehicle: suspension in saline",106 % of control
same,T/C,"dose: 8.0 mg/kg/injection, schedule: Q01DX010 (sc), vehicle: suspension in saline",67 % of control
same,T/C,"dose: 8.0 mg/kg/injection, schedule: Q04DX004 (sc), vehicle: suspension in saline",42 % of control
same,T/C,"dose: 10.0 mg/kg/injection, schedule: Q04DX004 (sc), vehicle: suspension in saline",29 % of control
same,T/C,"dose: 16.0 mg/kg/injection, schedule: Q04DX004 (sc), vehicle: suspension in saline",33 % of control
same,T/C,"dose: 20.0 mg/kg/injection, schedule: Q04DX004 (sc), vehicle: suspension in saline",42 % of control
[Cl][Sn]([c]1ccccc1)[c]1ccccc1,T/C,"dose: 75.0 mg/kg/injection, schedule: Q04DX004 (sc), vehicle: saline",59 % of control
same,T/C,"dose: 150.0 mg/kg/injection, schedule: Q04DX004 (sc), vehicle: saline",67 % of control
same,T/C,"dose: 300.0 mg/kg/injection, schedule: Q04DX004 (sc), vehicle: saline",63 % of control
same,T/C,"dose: 600.0 mg/kg/injection, schedule: Q04DX004 (sc), vehicle: saline",62 % of control
CCCCCCCCCCCCCCCCCC(=O)OCC(=O)OCC(=O)[C@]1(O)Cc2c(O)c3c(c(O)c2[C@@H](OC2CC(N)C(O)C(C)O2)C1)C(=O)c1c(OC)cccc1C3=O (stereo partly specified),T/C,"dose: 3.0 mg/kg/injection, schedule: Q01DX010 (sc), vehicle: water",56 % of control
same,T/C,"dose: 6.0 mg/kg/injection, schedule: Q01DX010 (sc), vehicle: water",47 % of control
same,T/C,"dose: 7.5 mg/kg/injection, schedule: Q04DX004 (sc), vehicle: water",86 % of control
same,T/C,"dose: 12.0 mg/kg/injection, schedule: Q01DX010 (sc), vehicle: water",59 % of control
same,T/C,"dose: 15.0 mg/kg/injection, schedule: Q04DX004 (sc), vehicle: water",96 % of control
same,T/C,"dose: 30.0 mg/kg/injection, schedule: Q04DX004 (sc), vehicle: water",38 % of control
CSc1ncc2ncn(C3OC(CO)C(O)C3O)c2n1 (stereo unspecified),T/C,[3],95 % of control
same,T/C,"dose: 150.0 mg/kg/injection, schedule: Q04DX004 (sc), vehicle: Klucel (hydroxypropylcellulose) (HPC)",90 % of control
same,T/C,"dose: 300.0 mg/kg/injection, schedule: Q04DX004 (sc), vehicle: Klucel (hydroxypropylcellulose) (HPC)",185 % of control
same,T/C,"dose: 600.0 mg/kg/injection, schedule: Q04DX004 (sc), vehicle: Klucel (hydroxypropylcellulose) (HPC)",182 % of control
COC(=O)C12OCC34C(CC5C(C)C6=CC(=O)OC6=CC5(C)C3C(O)C1O)OC(=O)C(OC(C)=O)C24 (stereo unspecified),T/C,"dose: 1.25 mg/kg/injection, schedule: Q04DX004 (sc), vehicle: saline + alcohol",115 % of control
same,T/C,"dose: 5.0 mg/kg/injection, schedule: Q04DX004 (sc), vehicle: saline + alcohol",171 % of control
same,T/C,"dose: 10.0 mg/kg/injection, schedule: Q04DX004 (sc), vehicle: saline + alcohol",165 % of control
Brc1c(NC2=NCCN2)ccc2nccnc12,T/C,"dose: 12.5 mg/kg/injection, schedule: Q04DX004 (sc), vehicle: saline",113 % of control
same,T/C,"dose: 25.0 mg/kg/injection, schedule: Q04DX004 (sc), vehicle: saline",92 % of control
same,T/C,"dose: 50.0 mg/kg/injection, schedule: Q04DX004 (sc), vehicle: saline",52 % of control
same,T/C,"dose: 100.0 mg/kg/injection, schedule: Q04DX004 (sc), vehicle: saline",93 % of control
same,T/C,"dose: 200.0 mg/kg/injection, schedule: Q04DX004 (sc), vehicle: saline",91 % of control
same,T/C,"dose: 400.0 mg/kg/injection, schedule: Q04DX004 (sc), vehicle: saline",79 % of control
"CC1NC(=O)C(NC(=O)c2cnc3ccccc3n2)COC(=O)C(C(C)C)N(C)C(=O)C2CSSCC(C(=O)N(C)C(C(C)C)C(=O)OCC(NC(=O)c3cnc4ccccc4n3)C(=O)NC(C)C(=O)N2C)N(C)C1=O (stereo unspecified) (I: Quinoxaline2carbonyl-SA[NMeC][NMeV] / II: Quinoxaline2carbonyl-SA[NMeC][NMeV]; ester I:1-II:C, I:C-II:1; disulfide I:3-II:3; configuration not given here)",T/C,[4],115 % of control
same,T/C,[5],96 % of control
same,T/C,[6],74 % of control
CN=C(N)N/N=C(\c1ccccc1)c1ccc(Br)cc1,T/C,"dose: 50.0 mg/kg/injection, schedule: Q04DX004 (sc), vehicle: saline with Tween-80",90 % of control and 92 % of control and 104 % of control
CC[N](CC)[Ge]([CH2]C)[CH2]C.CC[N](CC)[Ge]([CH2]C)[CH2]C,T/C,"dose: 12.5 mg/kg/injection, schedule: Q01DX010 (sc), vehicle: suspension in saline",226 % of control
same,T/C,"dose: 25.0 mg/kg/injection, schedule: Q01DX010 (sc), vehicle: suspension in saline",158 % of control
COC1OC(CO)C(O)C(NC(=O)N(C)N=O)C1O (stereo unspecified),T/C,"dose: 225.0 mg/kg/injection, schedule: Q04DX004 (sc), vehicle: suspension in saline",104 % of control
same,T/C,"dose: 450.0 mg/kg/injection, schedule: Q04DX004 (sc), vehicle: suspension in saline",95 % of control
same,T/C,"dose: 900.0 mg/kg/injection, schedule: Q04DX004 (sc), vehicle: suspension in saline",33 % of control
CSc1cc(C)[o+]c(C)c1,T/C,[7],107 % of control
same,T/C,[4],57 % of control
same,T/C,[5],41 % of control
CN(C)/N=N/c1nc[nH]c1C(N)=O,T/C,"dose: 100.0 mg/kg/injection, schedule: Q01DX010 (sc), vehicle: Klucel (hydroxypropylcellulose) (HPC)",90 % of control and 109 % of control
same,T/C,"dose: 400.0 mg/kg/injection, schedule: Q01DX010 (sc), vehicle: Klucel (hydroxypropylcellulose) (HPC)",77 % of control
CCOC(C)C(/C=N/NC(N)=S)=NNC(N)=S (stereo unspecified),T/C,"dose: 100.0 mg/kg/injection, schedule: Q01DX010 (sc), vehicle: saline with Tween-80",76 % of control
same,T/C,"dose: 200.0 mg/kg/injection, schedule: Q01DX010 (sc), vehicle: saline with Tween-80",49 % of control
same,T/C,"dose: 400.0 mg/kg/injection, schedule: Q01DX010 (sc), vehicle: saline with Tween-80",68 % of control
CC(C)CCCCCCCCCCCCC(=O)NCC(=O)NC1C(O)C(O)C(Nc2ncnc3nc[nH]c23)OC1C(O)CO (stereo unspecified),T/C,"dose: 0.75 mg/kg/injection, schedule: Q04DX004 (sc), vehicle: suspension in saline",85 % of control
same,T/C,"dose: 0.8 mg/kg/injection, schedule: Q01DX010 (sc), vehicle: saline",21 % of control and 24 % of control
same,T/C,"dose: 1.5 mg/kg/injection, schedule: Q04DX004 (sc), vehicle: suspension in saline",47 % of control
same,T/C,"dose: 3.0 mg/kg/injection, schedule: Q04DX004 (sc), vehicle: suspension in saline",10 % of control and 23 % of control
same,T/C,"dose: 6.0 mg/kg/injection, schedule: Q04DX004 (sc), vehicle: suspension in saline",15 % of control
C/C(=N\N=C(/[Se])N1CC2CCC(CC2)C1)c1ccccn1,T/C,"dose: 6.25 mg/kg/injection, schedule: Q04DX004 (sc), vehicle: Klucel (hydroxypropylcellulose) (HPC)",60 % of control
same,T/C,"dose: 12.5 mg/kg/injection, schedule: Q04DX004 (sc), vehicle: Klucel (hydroxypropylcellulose) (HPC)",83 % of control
same,T/C,"dose: 25.0 mg/kg/injection, schedule: Q04DX004 (sc), vehicle: Klucel (hydroxypropylcellulose) (HPC)",81 % of control
same,T/C,[7],86 % of control
C[C@]12CC[C@H](O)CC1=CC[C@@H]1[C@@H]2CC[C@]2(C)C(=O)CC[C@@H]12,T/C,"dose: 75.0 mg/kg/injection, schedule: Q04DX004 (sc), vehicle: saline with Tween-80",110 % of control
same,T/C,[1],180 % of control
same,T/C,[2],54 % of control
same,T/C,"dose: 600.0 mg/kg/injection, schedule: Q04DX004 (sc), vehicle: saline with Tween-80",67 % of control
CC1=NNC(=O)C1CCO (stereo unspecified),T/C,[5],66 % of control
same,T/C,[6],44 % of control
same,T/C,"dose: 800.0 mg/kg/injection, schedule: Q04DX004 (sc), vehicle: Klucel (hydroxypropylcellulose) (HPC)",99 % of control
same,T/C,"dose: 1600.0 mg/kg/injection, schedule: Q04DX004 (sc), vehicle: Klucel (hydroxypropylcellulose) (HPC)",63 % of control
